According to patent US12370143B2, “Compound or salt thereof and lipid particles” (FUJIFILM Corporation, priority 2018, dated 2025):

Columns and labels:
[1] = Particle size of nucleic acid lipid particles (Luc2-siRNA); type: physicochemical; settings: compound/DSPC/cholesterol/DMG-PEG2000 50/10/38.5/1.5
Summary of the method: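 Lipid particles formed from oil phase (test lipid/DSPC/cholesterol/DMG-PEG2000, 50/10/38.5/1.5 molar, 20 mmol/L total in ethanol) micromixed 1:3 with Luc2-siRNA in pH 4 acetate buffer (19.7 μmol/L); siRNA/lipid 339 mol/mol, PBS-diluted and dialyzed. Size measured on ELS-Z2 dynamic light scattering.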

[2] = Encapsulation rate of siRNA in nucleic acid lipid particles (Luc2-siRNA); type: physicochemical; settings: compound/DSPC/cholesterol/DMG-PEG2000 50/10/38.5/1.5
Summary of the method: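 Encapsulation rate was calculated as (total − outer-phase siRNA)/total ×100. Total siRNA was quantified spectrophotometrically after lipid-dissolving ethanol precipitation, and unencapsulated siRNA by RiboGreen in TE (ex 485/em 535 nm). The particles were test lipid/DSPC/cholesterol/DMG-PEG2000 at 50/10/38.5/1.5, formed by microfluidic mixing with Luc2-siRNA at pH 4 and dialyzed against PBS.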

[3] = test system: DMS273 cells constantly expressing Luc; test: Target reporter protein (Luc) knockdown in cell, reporter protein assay; type: cell-based; settings: Homo sapiens, DMS-273; Luc2-siRNA lipid particles using the compound; siRNA 0.1 to 100 nmol/L; concentration at which Luc expression is knocked down to 50%; read-out: IC50
Summary of the method: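 Nucleic acid lipid particles added at final 0.1 to 100 nmol/L to DMS273 human SCLC cells stably expressing Luc2, 24 hr exposure then 24 hr further culture after medium change. Luc quantified by Steady Glo luminescence after viable cell count; knockdown efficiency calculated and IC50 taken as concentration giving 50% Luc reduction.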

[4] = test system: Factor VII (FVII) protein; test: Measurement of Factor VII (FVII) protein in mouse plasma after FVII-siRNA lipid particles; type: in vivo, C57BL6/J mice; settings: 0.1 mg/kg caudal vein, plasma 24 hours after administration, PBS group = 100%
Protocol: (§1) The Factor VII (FVII) protein was measured according to the method described in Nature Biotechnology (2010) 28, 172-176. C57BL6/J mice were randomly grouped (n=3). A dispersion liquid of nucleic acid lipid particles was prepared by the same method as that in <Preparation of nucleic acid lipid particles>, except that FVII-siRNA having the sequence described in Molecular Therapy (2009) 17, p. 878 was used instead of Luc-siRNA. The dispersion liquid was administered to the caudal vein of the mice at a dosage of 0.1 mg/kg. For comparison, PBS at the same volume was administered to the caudal vein of the mice. Twenty four hours after the administration, blood was collected from the caudal vena cava, thereby obtaining plasma. The amount of FVII protein was quantified using the obtained plasma and a Biophen FVII assay kit (Aniara).
The FVII amount in the plasma sample of each individual in the PBS administration group was regarded as 100%, and the ratio of the FVII amount in the plasma sample of each individual to 100% was adopted as a measurement value.

[5] = Particle size of nucleic acid lipid particles (FVII-siRNA); type: physicochemical
Protocol: The compounds described in Table 2, L-α-distearoylphosphatidylcholine (trade name: COATSOME® MC-8080; NOF corporation), cholesterol (trade name: Choesterol HP; NIPPON FINE CHEMICAL CO., LTD.), and 1,2-dimyristoyl-rac-glycero-3-(methylpolyoxyethylene 2000) (hereinafter, called DMG-PEG2000) (trade name: SUNBRIGHT® GM-020; NOF corporation) were dissolved in ethanol at a molar ratio of 50/10/38.5/1.5 such that the total lipid concentration became 20 mmol/L, thereby obtaining an oil phase.
An aqueous nucleic acid solution obtained by dissolving 5 mg of Luc2-siRNA having the sequence described in Biomacromolecules (2013) 14, p. 3905 in 1 mL of sterile water was diluted with 10 mmol/L acetate buffer having a pH 4 such that the nucleic acid concentration became 19.7 μmol/L, thereby obtaining a water phase. Then, the water phase and the oil phase were mixed together by a micromixer (see JP5288254B) using a syringe pump such that the volume ratio of water phase:oil phase became 3:1 (final ratio of siRNA/lipid=339 (mol/mol)), and the mixed solution was diluted 2× with PBS, thereby obtaining a dispersion liquid of nucleic acid lipid particles. The dispersion liquid was dialyzed (Slide-A-Lyzer G2, MWCO: 10 kD, Thermo Fisher Scientific) using a phosphate buffered saline such that ethanol was removed, thereby obtaining nucleic acid lipid particles.
The particle size of the nucleic acid lipid particles was measured by the same method as that in <Preparation of lipid particles>.
as §1

[6] = Nucleic acid encapsulation rate of nucleic acid lipid particles (FVII-siRNA); type: physicochemical
Protocol: A 3 mol/L aqueous sodium acetate solution (30 μL) and 9 μL of glycogen were added to 60 μL of the lipid particles retaining nucleic acids, and then 1.5 mL of ethanol was added thereto such that only the nucleic acids were precipitated while the lipid was dissolved. Then, the supernatant was removed by centrifugation. After the precipitates were air-dried for 15 minutes or longer, water was added thereto such that the precipitates were redissolved, and the concentration thereof was measured using Nanodrop NF1000 (Thermo Fisher Scientific), thereby quantifying the total nucleic acid concentration.
The nucleic acid concentration was quantified using a Quant-iT RiboGreen RNA Assay Kit (Thermo Fisher Scientific) according to the protocol. First, a 20×TE buffer included in the above kit was diluted with water, thereby obtaining a 1×TE buffer. TE represents Tris/EDTA (ethylenediaminetetraacetic acid). In order to quantify only the nucleic acid in the outer water phase, the dispersion liquid of lipid particles retaining nucleic acids was diluted 10,000× with the 1×TE buffer.
The 10,000× diluted dispersion liquid of lipid particles (100 μL) was put in a 96-well plate, then 100 μL of a RiboGreen reagent (reagent included in the Quanti-iT Ribogreen RNA Assay Kit described above) diluted 2000× with the 1×TE buffer was added to a sample, and fluorescence (excitation wavelength: 485 nm, fluorescence wavelength: 535 nm) was measured using a plate reader Infinit EF200 (TECAN), thereby quantifying the nucleic acid concentration in the outer water phase.
By using the total nucleic acid concentration obtained through the above steps and the quantified nucleic acid concentration in the outer water phase, the nucleic acid encapsulation rate of the nucleic acid lipid particles was calculated according to the following Equation. Nucleic acid encapsulation rate (%)=(total nucleic acid concentration−nucleic acid concentration in outer water phase)/total nucleic acid concentration×100 The results are shown in Table 2.
as §1

SMILES | Particle size (nm) [1] [nm] | Nucleic acid encapsulation rate [2] [%] | IC50 [3] [nM] | Particle size (nm) [5] [nm] | Nucleic acid encapsulation rate [6] [%] | Relative amount of FVII protein (%) [4] [%]
CCCCC/C=C\C/C=C\CCCCCCCCC(CCCCCCCC/C=C\C/C=C\CCCCC)OC(=O)OCCN(C)CCN(CC)CC [Example 23, 2-((2-(Diethylamino)ethyl)(methyl)amino)ethyl((6Z,9Z,28Z,31Z)-heptatriaconta-6,9,28,31-tetraen-19-yl)carbonate] | 69.2 | 85 | 39 | 75.4 | 57 | 39
CCCCC/C=C\C/C=C\CCCCCCCCC(CCCCCCCC/C=C\C/C=C\CCCCC)OC(=O)OCCN(CC)CCN(C)C [Example 24, 2-((2-(Dimethylamino)ethyl)(ethyl)amino)ethyl((6Z,9Z,28Z,31Z)-heptatriaconta-6,9,28,31-tetraen-19-yl)carbonate] | 62.0 | 88 | 41 | 66.2 | 67 | 24
CCCCC/C=C\C/C=C\CCCCCCCCC(CCCCCCCC/C=C\C/C=C\CCCCC)OC(=O)OCCN(CC)CCN(CC)CC [Example 30, 2-((2-(Diethylamino)ethyl)(ethyl)amino)ethyl((6Z,9Z,28Z,31Z)-heptatriaconta-6,9,28,31-tetraen-19-yl)carbonate] | 69.8 | 78 | 24 | 73.6 | 88 | 5
CCCCC/C=C\C/C=C\CCCCCCCCC(CCCCCCCC/C=C\C/C=C\CCCCC)OC(=O)OCCN(CCC)CCN(C)C [Example 31, 2-((2-(Dimethylamino)ethyl)(propyl)amino)ethyl((6Z,9Z,28Z,31Z)-heptatriaconta-6,9,28,31-tetraen-19-yl)carbonate] | 67.9 | 78 | 38 | 73.5 | 80 | 14
CCCCCCCCC(CCCCCC)COC(=O)CCCCCCCCC(CCCCCC)OC(=O)OCCN(CCOC(=O)CCCCCCC)CCN(CC)CC (stereo not shown) [Example 99, 2-Hexyldecyl 3-ethyl-12-hexyl-6-(2-(octanoyloxy)ethyl)-10-oxo-9,11-dioxa-3,6-diazahenicosan-21-oate] | 68.9 | 81 | – | 72.3 | 79 | 3
CCCCCCCCCC(CCCCCCCCC)COC(=O)CCCC(CCCCCC)OC(=O)OCCN(CCN(CC)CC)C(C)C (stereo not shown) [Example 124, 2-Nonylundecyl 3-ethyl-12-hexyl-6-isopropyl-10-oxo-9,11-dioxa-3,6-diazahexadecan-16-oate] | 68.3 | 69 | – | 73.4 | 84 | 8
CCCCCCCC(CCCCCCC)COC(=O)CCCCCCCCC(CCCCCC)OC(=O)OCCN(CCN(CC)CC)C(C)C (stereo not shown) [Example 133, 2-Heptylnonyl 3-ethyl-12-hexyl-6-isopropyl-10-oxo-9,11-dioxa-3,6-diazahenicosan-21-oate] | 75.8 | 78 | – | 75.8 | 78 | 16

Continued, in another order:

Particle size (nm) [1] [nm] | Nucleic acid encapsulation rate [2] [%] | IC50 [3] [nM] | Particle size (nm) [5] [nm] | Nucleic acid encapsulation rate [6] [%] | SMILES | Relative amount of FVII protein (%) [4] [%]
78.7 | 81 | – | 78.8 | 90 | CCCCCCCC(=O)OCCN(CCOC(=O)OC(CCCCCC)CCCC(=O)OCC(CCCC)CCCCCC)CCN(CC)CC (stereo not shown) [Example 108, 2-Butyloctyl 3-ethyl-12-hexyl-6-(2-(octanoyloxy)ethyl)-10-oxo-9,11-dioxa-3,6-diazahexadecan-16-oate] | 3
77.3 | 90 | – | 85.4 | 89 | CCCCCCCCC(CCCCCC)COC(=O)CCCCCCCC(CCCCCC)OC(=O)OCCN(CCN(CC)CC)C(C)C (stereo not shown) [Example 117, 2-Hexyldecyl 3-ethyl-12-hexyl-6-isopropyl-10-oxo-9,11-dioxa-3,6-diazaicosan-20-oate] | 12
73.8 | 76 | – | 77.8 | 80 | CCCCCCCC(=O)OCCN(CCOC(=O)OC(CCCCCC)CCCCCCCCC(=O)OCCC(CCCCC)CCCCC)CCN(CC)CC (stereo not shown) [Example 125, 3-Pentyloctyl 3-ethyl-12-hexyl-6-(2-(octanoyloxy)ethyl)-10-oxo-9,11-dioxa-3,6-diazahenicosan-21-oate] | 5
66.8 | 75 | – | 74.2 | 85 | CCCCCCCCC(=O)OCCN(CCOC(=O)OC(CCCCCC)CCCCCCCCC(=O)OCCC(CCCCC)CCCCC)CCN(CC)CC (stereo not shown) [Example 126, 3-Pentyloctyl 3-ethyl-12-hexyl-6-(2-(nonanoyloxy)ethyl)-10-oxo-9,11-dioxa-3,6-diazahenicosan-21-oate] | 9
64.9 | 66 | – | 74.1 | 68 | CCCCCCCCC(=O)OCCN(CCOC(=O)OC(CCCCCC)CCCCCCCCC(=O)OCC(CCCCC)CCCCC)CCN(CC)CC (stereo not shown) [Example 130, 2-Pentylheptyl 3-ethyl-12-hexyl-6-(2-(nonanoyloxy)ethyl)-10-oxo-9,11-dioxa-3,6-diazahenicosan-21-oate] | 9
